Key:
Type in all cases: biochemical
[1] = target: T1, Steely1 C-terminal type III PKS domain (Dictyostelium discoideum, UniProt Q55E72); assay: In vitro polyketide extension assay with [14-C]malonyl-CoA and CoA-linked starters, TLC/autoradiography; settings: heterologously expressed domain, radiolabeled malonyl-CoA extender
T1 construct: poly-histidine (pHIS-8 vector, thrombin-cleavable) (N); made in house; host or cells: E. coli BL21(DE3) or CodonPlus (Stratagene)
T1 sequence (Q55E72 2776-3147): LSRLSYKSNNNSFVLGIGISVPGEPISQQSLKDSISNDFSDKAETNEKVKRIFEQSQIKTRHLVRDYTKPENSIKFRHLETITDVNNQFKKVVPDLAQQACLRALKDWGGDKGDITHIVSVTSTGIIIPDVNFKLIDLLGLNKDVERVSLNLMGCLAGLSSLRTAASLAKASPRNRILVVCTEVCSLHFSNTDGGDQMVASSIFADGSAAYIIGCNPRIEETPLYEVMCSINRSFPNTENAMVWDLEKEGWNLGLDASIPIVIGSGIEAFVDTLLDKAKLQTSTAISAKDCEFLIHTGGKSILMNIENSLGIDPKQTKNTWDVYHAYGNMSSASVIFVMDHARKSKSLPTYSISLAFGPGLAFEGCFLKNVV
Method: (§1) These differences in in vitro starter specificity are consistent with the substantial divergence of these steely active site predicted by homology modeling.
(§2) Standard 100 μL in vitro assays of heterologously expressed Steely C-terminal domains using [14-C]malonyl-CoA and various CoA-linked starters were conducted, extracted with ethyl acetate, analyzed by reverse-phase TLC, and visualized by autoradiography as previously reported.

[2] = target: T2, Steely2 C-terminal type III PKS domain (Dictyostelium discoideum, UniProt Q54FI3); assay: as above; settings: heterologously expressed domain, radiolabeled malonyl-CoA extender
T2 construct: poly-histidine (pHIS-8 vector, thrombin-cleavable) (N); made in house; host or cells: E. coli BL21(DE3) or CodonPlus (Stratagene)
T2 sequence (Q54FI3 2595-2968): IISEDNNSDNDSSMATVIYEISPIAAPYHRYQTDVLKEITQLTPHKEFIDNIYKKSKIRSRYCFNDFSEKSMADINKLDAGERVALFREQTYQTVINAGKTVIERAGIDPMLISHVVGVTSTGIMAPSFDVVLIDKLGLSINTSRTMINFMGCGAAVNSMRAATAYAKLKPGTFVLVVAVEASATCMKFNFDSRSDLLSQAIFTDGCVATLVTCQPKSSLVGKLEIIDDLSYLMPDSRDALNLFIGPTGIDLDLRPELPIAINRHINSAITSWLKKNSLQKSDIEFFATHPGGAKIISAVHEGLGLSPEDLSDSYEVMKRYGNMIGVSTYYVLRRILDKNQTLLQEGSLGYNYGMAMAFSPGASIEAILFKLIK
Method: as §1, §2

[3] = target: T3, Steely1 type III PKS domain (Dictyostelium discoideum, UniProt Q55E72); assay: HPLC-MS-MS analysis of in vitro assays with unlabeled malonyl-CoA; settings: overnight, Bis-Tris Propane pH 7.0
T3 construct: poly-histidine (pHIS-8 vector, thrombin-cleavable) (N); made in house; host or cells: E. coli BL21(DE3) or CodonPlus (Stratagene)
T3 sequence (Q55E72 2776-3147): T1 sequence (Q55E72 2776-3147)
Method: (§3) The related D. discoideum DIF-2 acylphloroglucinol scaffold seems to be derived from a pentanoyl intermediate. Therefore, in vitro assays of each steely C-terminal domain were also primed with butanoyl-CoA (12), as pentanoyl-CoA is not commercially available.
(§4) For HPLC-MS-MS analyses 25 μl injections of similarly prepared overnight reactions (but without organic extraction) buffered with 100 mM Bis-Tris Propane (pH 7.0), using unlabeled malonyl-CoA, were used. LC-MS-MS analyses were carried out on an Agilent 1100 HPLC with an integrated Agilent LC/MSD Trap XCT ion trap mass spectrometer, using a reversed-phase C18 column (4.6×150 mm; Gemini) maintained at 30° C. A gradient mobile phase ramped from 5% to 100% acetonitrile in water (with each solvent containing 0.1% v/v formic acid) between minutes 3 and 13 of a 25-min run using a flow rate of 0.5 ml min^−1 and a 0.1 ml min^−1 post column injection of 20 mM ammonium acetate in water. UV absorbance was monitored at 286 nm.
(§5) PCP was identified by direct HPLC-MS-MS comparison with an authentic synthetic standard, kindly provided by S. Horinouchi and N. Funa. Other hexanoyl- and butanoyl-primed enzymatic products were identified by comparing their relative HPLC elution times and negative MS-MS fragmentation patterns with previously published LC-MS-MS analyses of authentic standards (Funa et al. (2002) “Properties and substrate specificity of RppA, a chalcone synthase-related polyketide synthase in Streptomyces griseus” J Biol Chem 277:4628-4635). EICs with parent ion masses of plausible polyketide products were used to detect trace amounts of minor enzymatic products, but only triketide and tetraketide products were observed.

[4] = target: T4, Steely2 type III PKS domain (Dictyostelium discoideum, UniProt Q54FI3); assay: as above; settings: overnight, Bis-Tris Propane pH 7.0
T4 construct: poly-histidine (pHIS-8 vector, thrombin-cleavable) (N); made in house; host or cells: E. coli BL21(DE3) or CodonPlus (Stratagene)
T4 sequence (Q54FI3 2595-2968): T2 sequence (Q54FI3 2595-2968)
Method: as §3, §4, §5

SMILES | polyketide extension activity with the substance as starter [1] | polyketide extension activity with the substance as starter [2] | enzymatic products of starter-primed assay [3] | enzymatic products of starter-primed assay [4]
CC(C)CC(=O)SCCNC(=O)CCNC(=O)[C@H](O)C(C)(C)COP(=O)(O)OP(=O)(O)OC[C@H]1O[C@@H](n2cnc3c(N)ncnc32)[C@H](O)[C@@H]1OP(=O)(O)O [isovaleryl-CoA] | not Steely1 would accept | would accept |  | 
CC(=O)SCCNC(=O)CCNC(=O)[C@H](O)C(C)(C)COP(=O)(O)OP(=O)(O)OC[C@H]1O[C@@H](n2cnc3c(N)ncnc32)[C@H](O)[C@@H]1OP(=O)(O)O [acetyl-CoA] | Neither enzyme showed significant polyketide extension activity | Neither enzyme showed significant polyketide extension activity |  | 
CCCCCCCC(=O)SCCNC(=O)CCNC(=O)[C@H](O)C(C)(C)COP(=O)(O)OP(=O)(O)OC[C@H]1O[C@@H](n2cnc3c(N)ncnc32)[C@H](O)[C@@H]1OP(=O)(O)O [octanoyl-CoA] | accepted | only Steely1 accepted |  | 
CC(C)(COP(=O)(O)OP(=O)(O)OC[C@H]1O[C@@H](n2cnc3c(N)ncnc32)[C@H](O)[C@@H]1OP(=O)(O)O)[C@@H](O)C(=O)NCCC(=O)NCCSC(=O)CC(=O)O [malonyl-CoA] | Neither enzyme showed significant polyketide extension activity | Neither enzyme showed significant polyketide extension activity |  | 
CC(C)(COP(=O)(O)OP(=O)(O)OC[C@H]1O[C@@H](n2cnc3c(N)ncnc32)[C@H](O)[C@@H]1OP(=O)(O)O)[C@@H](O)C(=O)NCCC(=O)NCCSC(=O)/C=C/c1ccc(O)cc1 [p-coumaroyl-CoA] | Neither enzyme showed significant polyketide extension activity | Neither enzyme showed significant polyketide extension activity |  | 
CCCC(=O)SCCNC(=O)CCNC(=O)[C@H](O)C(C)(C)COP(=O)(O)OP(=O)(O)OC[C@H]1O[C@@H](n2cnc3c(N)ncnc32)[C@H](O)[C@@H]1OP(=O)(O)O [butanoyl-CoA] |  |  | no effect on the cyclization fate | no effect on the cyclization fate
CCCCCC(=O)SCCNC(=O)CCNC(=O)[C@H](O)C(C)(C)COP(=O)(O)OP(=O)(O)OC[C@H]1O[C@@H](n2cnc3c(N)ncnc32)[C@H](O)[C@@H]1OP(=O)(O)O [hexanoyl-CoA] | catalyze iterative polyketide extension | catalyze iterative polyketide extension | produced only triketide (10) and tetraketide (11) lactonization-derived pyrones | catalyzes three rounds of polyketide chain extension and the final CHS-like intramolecular C6 to C1 Claisen condensation

Source: US20120122180A1, “INC[…] TYPE III […] INTO M[…] OF THE TYPE I AND III […] AND FATTY ACID SYNTHASE FAMILIES” (Salk Institute for Biological Studies, priority 2006, published 2012)
